Data on 28 compounds can be found in patent US10106556B2, “Heterocyclic compound” (TAKEDA PHARMACEUTICAL COMPANY LIMITED, priority 2015, dated 2018).

Usually inhibition stands for the relative decrease from the control value, in per cent.

Each structure is given as a SMILES string.

The target in the test is T1, His-hMAGL (recombinant polyhistidine tagged human MAGL protein) (Homo sapiens, UniProt Q99685).
T1 construct: made in house; host or cells: E. coli BL21(DE3)
T1 sequence (Q99685 1-303): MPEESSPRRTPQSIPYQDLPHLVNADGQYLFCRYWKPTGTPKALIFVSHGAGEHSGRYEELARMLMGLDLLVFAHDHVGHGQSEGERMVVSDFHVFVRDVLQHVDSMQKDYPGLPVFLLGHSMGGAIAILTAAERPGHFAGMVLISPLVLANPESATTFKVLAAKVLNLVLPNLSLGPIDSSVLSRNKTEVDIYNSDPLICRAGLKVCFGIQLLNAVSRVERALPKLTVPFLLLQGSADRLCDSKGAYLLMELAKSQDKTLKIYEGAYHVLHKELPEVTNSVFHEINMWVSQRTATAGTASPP
As to the kind of experiment: Measurement of MAGL inhibitory activity (arachidonic acid production from 2-arachidonylglycerol, RapidFire-mass spectrometry). The class given is biochemical. Conditions: MAGL inhibitory rate at 10 μM test compound; 60 min preincubation with His-hMAGL, 2-arachidonylglycerol substrate, 10 min reaction at room temperature. The method in brief: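 Inhibition (%) was derived from arachidonic acid levels relative to enzyme-free and compound-free groups. Product was measured by online C4 solid-phase extraction and triple-quadrupole MS in negative SRM mode, corrected by arachidonic acid-d8 (3 μM in the acetonitrile added). Substrate was 2-arachidonylglycerol; enzyme was His-tagged recombinant human MAGL.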
As for `Cc1cc(-c2cc(Cl)ccc2OCC2CN(C(=O)c3cc4c(cc3F)OCC(=O)N4)C2)nn1C` [Example 217, 6-((3-((4-chloro-2-(1,5-dimethyl-1H-pyrazol-3-yl)phenoxy)methyl)azetidin-1-yl)carbonyl)-7-fluoro-2H-1,4-benzoxazin-3(4H)-one], the inhibition at 10 µM amounted to 104%.
Take `Cn1nccc1-c1cc(Cl)ccc1OCC1CN(C(=O)c2cc3c(cc2F)OCC(=O)N3)C1` [Example 218, 6-((3-((4-chloro-2-(1-methyl-1H-pyrazol-5-yl)phenoxy)methyl)azetidin-1-yl)carbonyl)-7-fluoro-2H-1,4-benzoxazin-3(4H)-one]: the inhibition at 10 µM was 99%.
In the case of `Cn1cccc1-c1cc(Cl)ccc1OCC1CN(C(=O)c2cc3c(cc2F)OCC(=O)N3)C1` [Example 219, 6-((3-((4-chloro-2-(1-methyl-1H-pyrrol-2-yl)phenoxy)methyl)azetidin-1-yl)carbonyl)-7-fluoro-2H-1,4-benzoxazin-3(4H)-one] it was 101%; in that of `O=C1COc2cc(F)c(C(=O)N3CC(COc4ccc(Cl)cc4-c4ccc(C(F)(F)F)nc4)C3)cc2N1` [Example 220, 6-((3-((4-chloro-2-(6-(trifluoromethyl)pyridin-3-yl)phenoxy)methyl)azetidin-1-yl)carbonyl)-7-fluoro-2H-1,4-benzoxazin-3(4H)-one], 102%; in that of `O=C1COc2cc(F)c(C(=O)N3CC(COc4ccc(Cl)cc4-c4ccc5c(c4)CCO5)C3)cc2N1` [Example 221, 6-((3-((4-chloro-2-(2,3-dihydro-1-benzofuran-5-yl)phenoxy)methyl)azetidin-1-yl)carbonyl)-7-fluoro-2H-1,4-benzoxazin-3(4H)-one], 102%.
The value for `O=C1COc2cc(F)c(C(=O)N3CC(COc4ccc(Cl)cc4-c4cnc(C(F)(F)F)nc4)C3)cc2N1` [Example 222, 6-((3-((4-chloro-2-(2-(trifluoromethyl)pyrimidin-5-yl)phenoxy)methyl)azetidin-1-yl)carbonyl)-7-fluoro-2H-1,4-benzoxazin-3(4H)-one] was 101%; that for `Cc1cc(-c2cc(Cl)ccc2OCC2CN(C(=O)c3cc4c(cc3F)OCC(=O)N4)C2)n(C)n1` [Example 223, 6-((3-((4-chloro-2-(1,3-dimethyl-1H-pyrazol-5-yl)phenoxy)methyl)azetidin-1-yl)carbonyl)-7-fluoro-2H-1,4-benzoxazin-3(4H)-one] was 102%.
In the case of `CC(C)Cn1cc(-c2cc(Cl)ccc2OCC2CN(C(=O)c3cc4c(cc3F)OCC(=O)N4)C2)cn1` [Example 224, 6-((3-((4-chloro-2-(1-isobutyl-1H-pyrazol-4-yl)phenoxy)methyl)azetidin-1-yl)carbonyl)-7-fluoro-2H-1,4-benzoxazin-3(4H)-one] it was 103%.
With `O=C1COc2cc(F)c(C(=O)N3CC(COCC4CC4)C3)cc2N1` [Example 225, 6-((3-((cyclopropylmethoxy)methyl)azetidin-1-yl)carbonyl)-7-fluoro-2H-1,4-benzoxazin-3(4H)-one], the inhibition at 10 µM stood at 85%.
The value for `Cc1cc(Cl)ccc1OCC1CN(C(=O)c2cc3c(cc2F)OCC(=O)N3)C1` [Example 226, 6-((3-((4-chloro-2-methylphenoxy)methyl)azetidin-1-yl)carbonyl)-7-fluoro-2H-1,4-benzoxazin-3(4H)-one] was 101%; that for `O=C1COc2cc(F)c(C(=O)N3CC(COc4ccc(-c5ccccn5)cc4F)C3)cc2N1` [Example 227, 7-fluoro-6-((3-((2-fluoro-4-(pyridin-2-yl)phenoxy)methyl)azetidin-1-yl)carbonyl)-2H-1,4-benzoxazin-3(4H)-one] was 97%; that for `O=C1COc2cc(F)c(C(=O)N3CC(COc4ccc(-c5ccc(F)cn5)cc4F)C3)cc2N1` [Example 228, 7-fluoro-6-((3-((2-fluoro-4-(5-fluoropyridin-2-yl)phenoxy)methyl)azetidin-1-yl)carbonyl)-2H-1,4-benzoxazin-3(4H)-one] was 94%.
In the case of `O=C1COc2cc(F)c(C(=O)N3CC(COc4ccc(-c5ccc(Cl)cn5)cc4F)C3)cc2N1` [Example 229, 6-((3-((4-(5-chloropyridin-2-yl)-2-fluorophenoxy)methyl)azetidin-1-yl)carbonyl)-7-fluoro-2H-1,4-benzoxazin-3(4H)-one] it was 88%.
In the case of `Cc1cccc(-c2ccc(OCC3CN(C(=O)c4cc5c(cc4F)OCC(=O)N5)C3)c(F)c2)n1` [Example 230, 7-fluoro-6-((3-((2-fluoro-4-(6-methylpyridin-2-yl)phenoxy)methyl)azetidin-1-yl)carbonyl)-2H-1,4-benzoxazin-3(4H)-one], the inhibition at 10 µM was determined as 95%.
The value for `Cc1cccnc1-c1ccc(OCC2CN(C(=O)c3cc4c(cc3F)OCC(=O)N4)C2)c(F)c1` [Example 231, 7-fluoro-6-((3-((2-fluoro-4-(3-methylpyridin-2-yl)phenoxy)methyl)azetidin-1-yl)carbonyl)-2H-1,4-benzoxazin-3(4H)-one] was 100%; that for `O=C1COc2cc(F)c(C(=O)N3CC(COc4ccc(-c5cccnc5Cl)cc4F)C3)cc2N1` [Example 232, 6-((3-((4-(2-chloropyridin-3-yl)-2-fluorophenoxy)methyl)azetidin-1-yl)carbonyl)-7-fluoro-2H-1,4-benzoxazin-3(4H)-one] was 99%; that for `CCc1ncccc1-c1ccc(OCC2CN(C(=O)c3cc4c(cc3F)OCC(=O)N4)C2)c(F)c1` [Example 233, 6-((3-((4-(2-ethylpyridin-3-yl)-2-fluorophenoxy)methyl)azetidin-1-yl)carbonyl)-7-fluoro-2H-1,4-benzoxazin-3(4H)-one] was 100%.
In the case of `O=C1COc2cc(F)c(C(=O)N3CC(COc4ccc(-c5cncc(F)c5)cc4F)C3)cc2N1` [Example 234, 7-fluoro-6-((3-((2-fluoro-4-(5-fluoropyridin-3-yl)phenoxy)methyl)azetidin-1-yl)carbonyl)-2H-1,4-benzoxazin-3(4H)-one] it was 97%; in that of `O=C1COc2cc(F)c(C(=O)N3CC(COc4ccc(-c5cncc(Cl)c5)cc4F)C3)cc2N1` [Example 235, 6-((3-((4-(5-chloropyridin-3-yl)-2-fluorophenoxy)methyl)azetidin-1-yl)carbonyl)-7-fluoro-2H-1,4-benzoxazin-3(4H)-one], 100%.
For `Cc1cncc(-c2ccc(OCC3CN(C(=O)c4cc5c(cc4F)OCC(=O)N5)C3)c(F)c2)c1` [Example 236, 7-fluoro-6-((3-((2-fluoro-4-(5-methylpyridin-3-yl)phenoxy)methyl)azetidin-1-yl)carbonyl)-2H-1,4-benzoxazin-3(4H)-one], the inhibition at 10 µM was found to be 99%.
In the case of `Cc1ccncc1-c1ccc(OCC2CN(C(=O)c3cc4c(cc3F)OCC(=O)N4)C2)c(F)c1` [Example 237, 7-fluoro-6-((3-((2-fluoro-4-(4-methylpyridin-3-yl)phenoxy)methyl)azetidin-1-yl)carbonyl)-2H-1,4-benzoxazin-3(4H)-one] it was 99%; in that of `O=C1COc2cc(F)c(C(=O)N3CC(COc4ccc(-c5ccc(F)nc5)cc4F)C3)cc2N1` [Example 238, 7-fluoro-6-((3-((2-fluoro-4-(6-fluoropyridin-3-yl)phenoxy)methyl)azetidin-1-yl)carbonyl)-2H-1,4-benzoxazin-3(4H)-one], 99%.
The value for `O=C1COc2cc(F)c(C(=O)N3CC(COc4ccc(-c5ccncc5)cc4F)C3)cc2N1` [Example 239, 7-fluoro-6-((3-((2-fluoro-4-(pyridin-4-yl)phenoxy)methyl)azetidin-1-yl)carbonyl)-2H-1,4-benzoxazin-3(4H)-one] was 100%.
In the case of `O=C1COc2cc(F)c(C(=O)N3CC(COc4ccc(-c5ccnc(F)c5)cc4F)C3)cc2N1` [Example 240, 7-fluoro-6-((3-((2-fluoro-4-(2-fluoropyridin-4-yl)phenoxy)methyl)azetidin-1-yl)carbonyl)-2H-1,4-benzoxazin-3(4H)-one] it was 102%.
As for `O=C1COc2cc(F)c(C(=O)N3CC(COc4ccc(-c5ccnc(Cl)c5)cc4F)C3)cc2N1` [Example 241, 6-((3-((4-(2-chloropyridin-4-yl)-2-fluorophenoxy)methyl)azetidin-1-yl)carbonyl)-7-fluoro-2H-1,4-benzoxazin-3(4H)-one], the inhibition at 10 µM is 101%.
In the case of `O=C1COc2cc(F)c(C(=O)N3CC(COc4ccc(-c5ccncc5F)cc4F)C3)cc2N1` [Example 242, 7-fluoro-6-((3-((2-fluoro-4-(3-fluoropyridin-4-yl)phenoxy)methyl)azetidin-1-yl)carbonyl)-2H-1,4-benzoxazin-3(4H)-one] it was 100%.
In the case of `O=C1COc2cc(F)c(C(=O)N3CC(COc4ccc(-c5ccncc5Cl)cc4F)C3)cc2N1` [Example 243, 6-((3-((4-(3-chloropyridin-4-yl)-2-fluorophenoxy)methyl)azetidin-1-yl)carbonyl)-7-fluoro-2H-1,4-benzoxazin-3(4H)-one] it was 101%; in that of `O=C1COc2cc(F)c(C(=O)N3CC(COc4ccc(C5=CCOCC5)cc4F)C3)cc2N1` [Example 244, 6-((3-((4-(3,6-dihydro-2H-pyran-4-yl)-2-fluorophenoxy)methyl)azetidin-1-yl)carbonyl)-7-fluoro-2H-1,4-benzoxazin-3(4H)-one], 100%.
